This assay deals with T1, Androgen Receptor dual T878A/L702H mutant protein (Homo sapiens, UniProt P10275, L702H/T878A).
T1 construct: host or cells: MDA-PCa-2b
T1 sequence (P10275 1-920 L702H/T878A): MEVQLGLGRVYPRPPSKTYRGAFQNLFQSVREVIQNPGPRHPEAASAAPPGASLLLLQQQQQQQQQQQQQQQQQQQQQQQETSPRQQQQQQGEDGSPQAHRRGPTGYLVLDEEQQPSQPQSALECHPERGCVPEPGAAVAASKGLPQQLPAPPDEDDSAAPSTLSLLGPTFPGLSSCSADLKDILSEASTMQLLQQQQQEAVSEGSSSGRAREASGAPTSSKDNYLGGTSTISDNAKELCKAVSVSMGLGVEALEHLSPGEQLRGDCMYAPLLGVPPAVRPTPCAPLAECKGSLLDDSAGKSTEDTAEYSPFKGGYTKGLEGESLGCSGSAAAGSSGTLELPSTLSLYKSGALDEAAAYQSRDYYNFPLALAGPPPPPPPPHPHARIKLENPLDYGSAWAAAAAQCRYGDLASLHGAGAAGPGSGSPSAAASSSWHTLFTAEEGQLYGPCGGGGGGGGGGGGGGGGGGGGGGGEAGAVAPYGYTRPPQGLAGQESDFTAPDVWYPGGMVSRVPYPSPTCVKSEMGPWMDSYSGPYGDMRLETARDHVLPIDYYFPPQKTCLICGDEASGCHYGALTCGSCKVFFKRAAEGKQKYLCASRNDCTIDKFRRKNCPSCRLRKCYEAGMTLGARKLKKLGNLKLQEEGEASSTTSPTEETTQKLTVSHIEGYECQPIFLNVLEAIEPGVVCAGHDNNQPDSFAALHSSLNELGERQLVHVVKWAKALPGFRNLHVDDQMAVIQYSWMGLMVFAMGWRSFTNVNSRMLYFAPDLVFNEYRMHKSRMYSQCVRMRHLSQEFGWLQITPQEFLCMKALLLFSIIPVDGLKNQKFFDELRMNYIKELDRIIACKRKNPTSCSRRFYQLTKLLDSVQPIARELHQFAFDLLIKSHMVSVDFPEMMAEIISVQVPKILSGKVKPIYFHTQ
As to the kind of experiment: Dual Mutant (T878A/L702H) Androgen Receptor Degradation Assay (HTRF, MDA-PCa-2b cells). Type of assay: cell-based. Conditions: 18 h, 18 h incubation, read-out: mean asymptote max. In outline: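 PROTACs tested as 11-point, 3-fold dilutions on 10,000 cells for 18 h at 37 °C. Remaining AR read by HTRF (665/620 nm ratio) after lysis, normalised to DMSO-treated cells (0%) and cell-free medium (100%). Relative DC50 from 4-parameter fit inflection, absolute DC50 interpolated at 50% degradation; Dmax is maximum observed degradation.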
A general note: In TR-FRET formats the signal depends on donor and acceptor labels being close together.
Consider `COc1cc(O[C@H]2C(C)(C)[C@H](NC(=O)c3ccc(N4CCC(CN5CC[C@@H](n6ncc7c(N8CCC(=O)NC8=O)cccc76)[C@@H](F)C5)CC4)c(F)c3)C2(C)C)ccc1C#N` [Example 27, N-((1r,3r)-3-(4-Cyano-3-methoxyphenoxy)-2,2,4,4-tetramethylcyclobutyl)-4-(4-(((3,4R)-4-(4-(2,4-dioxotetrahydropyrimidin-1(2H)-yl)-1H-indazol-1-yl)-3-fluoropiperidin-1-yl)methyl)piperidin-1-yl)-3-fluorobenzamide], for which the Dmax was at least 50%.

Consider `CC1(C)[C@H](NC(=O)c2ccc(N3CCC(CN4CCC(n5ccc6c(N7CCC(=O)NC7=O)ncnc65)CC4)CC3)cc2)C(C)(C)[C@H]1Oc1ccc(C#N)c2ncccc12` [Example 28, N-((1r,3r)-3-((8-Cyanoquinolin-5-yl)oxy)-2,2,4,4-tetramethylcyclobutyl)-4-(4-((4-(4-(2,4-dioxotetrahydropyrimidin-1(2H)-yl)-7H-pyrrolo[2,3-d]pyrimidin-7-yl)piperidin-1-yl)methyl)piperidin-1-yl)benzamide], for which the Dmax was at least 50%.

In the case of `CC1(C)[C@H](NC(=O)c2ccc(N3CCC(CN4CCC(n5ccc6c(N7CCC(=O)NC7=O)cccc65)CC4)CC3)c(F)c2)C(C)(C)[C@H]1Oc1ccc(C#N)c2ncccc12` [Example 31, N-((1r,3r)-3-((8-Cyanoquinolin-5-yl)oxy)-2,2,4,4-tetramethylcyclobutyl)-4-(4-((4-(4-(2,4-dioxotetrahydropyrimidin-1(2H)-yl)-1H-indol-1-yl)piperidin-1-yl)methyl)piperidin-1-yl)-3-fluorobenzamide], the Dmax was at least 50%.

As for `CC1(C)[C@H](NC(=O)c2ccc(N3CCC(CN4CCC(n5ccc6c(N7CCC(=O)NC7=O)cc(F)cc65)CC4)CC3)c(F)c2)C(C)(C)[C@H]1Oc1ccc(C#N)c2ncccc12` [Example 32, N-((1r,3r)-3-((8-Cyanoquinolin-5-yl)oxy)-2,2,4,4-tetramethylcyclobutyl)-4-(4-((4-(4-(2,4-dioxotetrahydropyrimidin-1(2H)-yl)-6-fluoro-1H-indol-1-yl)piperidin-1-yl)methyl)piperidin-1-yl)-3-fluorobenzamide], the Dmax was at least 50%.

Regarding `CC1(C)[C@H](NC(=O)c2ccc(N3CC[C@@H](CN4CCC(n5ncc6c(N7CCC(=O)NC7=O)cccc65)CC4)C3)c(F)c2)C(C)(C)[C@H]1Oc1ccc(C#N)c2ncccc12` [Example 33, N-((1r,3S)-3-((8-Cyanoquinolin-5-yl)oxy)-2,2,4,4-tetramethylcyclobutyl)-4-((S)-3-((4-(4-(2,4-dioxotetrahydropyrimidin-1(2H)-yl)-1H-indazol-1-yl)piperidin-1-yl)methyl)pyrrolidin-1-yl)-3-fluorobenzamide], the Dmax was at least 50%.

Take `CC1(C)[C@H](NC(=O)c2ccc(N3CC[C@H](CN4CCC(n5ncc6c(N7CCC(=O)NC7=O)cccc65)CC4)C3)c(F)c2)C(C)(C)[C@H]1Oc1ccc(C#N)c2ncccc12` [Example 34, N-((1r,3R)-3-((8-Cyanoquinolin-5-yl)oxy)-2,2,4,4-tetramethylcyclobutyl)-4-((R)-3-((4-(4-(2,4-dioxotetrahydropyrimidin-1(2H)-yl)-1H-indazol-1-yl)piperidin-1-yl)methyl)pyrrolidin-1-yl)-3-fluorobenzamide]: the Dmax is at least 50%.

Turning to `CC1(C)[C@H](NC(=O)c2ccc(N3CCC(CN4CC[C@@H](n5ncc6c(N7CCC(=O)NC7=O)cccc65)C4)CC3)c(F)c2)C(C)(C)[C@H]1Oc1ccc(C#N)c2ncccc12` [Example 36, N-((1r,3r)-3-((8-Cyanoquinolin-5-yl)oxy)-2,2,4,4-tetramethylcyclobutyl)-4-(4-(((R)-3-(4-(2,4-dioxotetrahydropyrimidin-1(2H)-yl)-1H-indazol-1-yl)pyrrolidin-1-yl)methyl)piperidin-1-yl)-3-fluorobenzamide], the Dmax was determined as 41%.

With `CC1(C)[C@H](NC(=O)c2ccc(N3CCC(CN4CC[C@H](n5ncc6c(N7CCC(=O)NC7=O)cccc65)C4)CC3)c(F)c2)C(C)(C)[C@H]1Oc1ccc(C#N)c2ncccc12` [Example 37, N-((1r,3r)-3-((8-Cyanoquinolin-5-yl)oxy)-2,2,4,4-tetramethylcyclobutyl)-4-(4-(((S)-3-(4-(2,4-dioxotetrahydropyrimidin-1(2H)-yl)-1H-indazol-1-yl)pyrrolidin-1-yl)methyl)piperidin-1-yl)-3-fluorobenzamide], the Dmax is at least 50%.

On to `CC1(C)[C@H](NC(=O)c2ccc(N3CCC(CN4CCC(n5ncc6c(N7CCC(=O)NC7=O)cc(F)cc65)CC4)CC3)c(F)c2)C(C)(C)[C@H]1Oc1ccc(C#N)c2ncccc12` [Example 38, N-((1r,3r)-3-((8-Cyanoquinolin-5-yl)oxy)-2,2,4,4-tetramethylcyclobutyl)-4-(4-((4-(4-(2,4-dioxotetrahydropyrimidin-1(2H)-yl)-6-fluoro-1H-indazol-1-yl)piperidin-1-yl)methyl)piperidin-1-yl)-3-fluorobenzamide], for which the Dmax was at least 50%.

As to `CC1(C)[C@H](NC(=O)c2ccc(N3CCC(CN4CCC(n5ncc6c(N7CCC(=O)NC7=O)nccc65)CC4)CC3)c(F)c2)C(C)(C)[C@H]1Oc1ccc(C#N)c2ncccc12` [Example 39, N-((1r,3r)-3-((8-Cyanoquinolin-5-yl)oxy)-2,2,4,4-tetramethylcyclobutyl)-4-(4-((4-(4-(2,4-dioxotetrahydropyrimidin-1(2H)-yl)-1H-pyrazolo[4,3-c]pyridin-1-yl)piperidin-1-yl)methyl)piperidin-1-yl)-3-fluorobenzamide], the Dmax was at least 50%.

As to `CC1(C)[C@H](NC(=O)c2ccc(N3CCC(CN4CCC(n5ncc6c(N7CCC(=O)NC7=O)ccnc65)CC4)CC3)c(F)c2)C(C)(C)[C@H]1Oc1ccc(C#N)c2ncccc12` [Example 40, N-((1r,3r)-3-((8-Cyanoquinolin-5-yl)oxy)-2,2,4,4-tetramethylcyclobutyl)-4-(4-((4-(4-(2,4-dioxotetrahydropyrimidin-1(2H)-yl)-1H-pyrazolo[3,4-b]pyridin-1-yl)piperidin-1-yl)methyl)piperidin-1-yl)-3-fluorobenzamide], the Dmax is at least 50%.

As to `CC1(C)[C@H](NC(=O)c2ccc(N3CCC(CN4CCC(n5ncc6c(N7CCC(=O)NC7=O)cc(Cl)cc65)CC4)CC3)c(F)c2)C(C)(C)[C@H]1Oc1ccc(C#N)c2ncccc12` [Example 41, 4-(4-((4-(6-Chloro-4-(2,4-dioxotetrahydropyrimidin-1(2H)-yl)-1H-indazol-1-yl)piperidin-1-yl)methyl)piperidin-1-yl)-/-((1r,3r)-3-((8-cyanoquinolin-5-yl)oxy)-2,2,4,4-tetramethylcyclobutyl)-3-fluorobenzamide], the Dmax is at least 50%.

`CC1(C)[C@H](NC(=O)c2ccc(N3CCC(CN4CCC(n5ncc6c(N7CCC(=O)NC7=O)cc(C(F)(F)F)cc65)CC4)CC3)c(F)c2)C(C)(C)[C@H]1Oc1ccc(C#N)c2ncccc12` [Example 42, N-((1r,3r)-3-((8-Cyanoquinolin-5-yl)oxy)-2,2,4,4-tetramethylcyclobutyl)-4-(4-((4-(4-(2,4-dioxotetrahydropyrimidin-1(2H)-yl)-6-(trifluoromethyl)-1H-indazol-1-yl)piperidin-1-yl)methyl)piperidin-1-yl)-3-fluorobenzamide]: the Dmax is at least 50%.

Consider `CC1(C)[C@H](NC(=O)c2ccc(N3CCC(CN4CCC(n5ccc6c(N7CCC(=O)NC7=O)cccc65)CC4)CC3)cc2)C(C)(C)[C@H]1Oc1ccc(C#N)c2ncccc12` [Example 43, N-((1r,3r)-3-((8-Cyanoquinolin-5-yl)oxy)-2,2,4,4-tetramethylcyclobutyl)-4-(4-((4-(4-(2,4-dioxotetrahydropyrimidin-1(2H)-yl)-1H-indol-1-yl)piperidin-1-yl)methyl)piperidin-1-yl)benzamide], for which the Dmax was at least 50%.

Regarding `CC1(C)[C@H](NC(=O)c2ccc(N3CCC(CN4CCC(n5ncc6c(N7CCC(=O)NC7=O)cccc65)CC4)CC3)c(Cl)c2)C(C)(C)[C@H]1Oc1ccc(C#N)c2ncccc12` [Example 44, 3-Chloro-N-((1r,3r)-3-((8-cyanoquinolin-5-yl)oxy)-2,2,4,4-tetramethylcyclobutyl)-4-(4-((4-(4-(2,4-dioxotetrahydropyrimidin-1(2H)-yl)-1H-indazol-1-yl)piperidin-1-yl)methyl)piperidin-1-yl)benzamide], the Dmax is at least 50%.

The record behind these values is patent US12577231B2, “Androgen receptor PROTACS” (GlaxoSmithKline Intellectual Property Development Limited, priority 2023, dated 2026).
